What was measured:
Conditions in all cases: incubation time: 72 h
MDA-MB-436 [1] = assay: normalised response (% of control), CellTiter-Glo; higher = more viable cells (100 = DMSO, 0 = benzethonium chloride kill control)
In short: (§1)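 Breast cancer cell lines were exposed for 72 h in 384-well plates to compound at 5 concentrations, 10-fold apart, covering a 10,000-fold range fixed for each compound. Plates were read for CellTox Green fluorescence and CellTiter-Glo luminescence and normalised to 0.1 % DMSO (100) and a positive kill control (0). Each value is the normalised signal at one concentration of the series.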

MCF-10A [2] = assay: as above
In short: as §1

MDA-MB-468 [3] = assay: as above
In short: as §1

MFM-223 [4] = assay: as above
In short: as §1

CAL-85-1 [5] = assay: as above
In short: as §1

Hs578T [6] = assay: as above
In short: as §1

SK-BR-3 = assay: as above
In short: as §1

HCC1599 [7] = assay: as above
In short: as §1

HCC1143 [8] = assay: as above
In short: as §1

CAL-120 [9] = assay: as above
In short: as §1

HDQ-P1 [10] = assay: as above
In short: as §1

CAL-148 [11] = assay: as above
In short: as §1

MDA-MB-453 [12] = assay: as above
In short: as §1

BT-549 [13] = assay: as above
In short: as §1

BT-474 [14] = assay: as above
In short: as §1

CAL-51 [15] = assay: as above
In short: as §1

HCC1937 [16] = assay: as above
In short: as §1

MDA-MB-231 [17] = assay: as above
In short: as §1

DU-4475 [18] = assay: as above
In short: as §1

MCF-10A [19] = assay: normalised response (% of control), CellTox Green; higher = less cell death (100 = DMSO, 0 = benzethonium chloride kill control)
In short: as §1

MDA-MB-468 [20] = assay: as above
In short: as §1

MFM-223 [21] = assay: as above
In short: as §1

CAL-85-1 [22] = assay: as above
In short: as §1

Hs578T [23] = assay: as above
In short: as §1

HCC1599 [24] = assay: as above
In short: as §1

HCC1143 [25] = assay: as above
In short: as §1

CAL-120 [26] = assay: as above
In short: as §1

HDQ-P1 [27] = assay: as above
In short: as §1

CAL-148 [28] = assay: as above
In short: as §1

MDA-MB-453 [29] = assay: as above
In short: as §1

BT-549 [30] = assay: as above
In short: as §1

BT-474 [31] = assay: as above
In short: as §1

CAL-51 [32] = assay: as above
In short: as §1

HCC1937 [33] = assay: as above
In short: as §1

MDA-MB-231 [34] = assay: as above
In short: as §1

DU-4475 [35] = assay: as above
In short: as §1

MDA-MB-436 [36] = assay: as above
In short: as §1

| Compound | normalised response (MDA-MB-436 [1]) [%] | normalised response (MCF-10A [2]) [%] | normalised response (MDA-MB-468 [3]) [%] | normalised response (MFM-223 [4]) [%] | normalised response (CAL-85-1 [5]) [%] | normalised response (Hs578T [6]) [%] | normalised response (SK-BR-3) [%] | normalised response (HCC1599 [7]) [%] | normalised response (HCC1143 [8]) [%] | normalised response (CAL-120 [9]) [%] | normalised response (HDQ-P1 [10]) [%] | normalised response (CAL-148 [11]) [%] | normalised response (MDA-MB-453 [12]) [%] | normalised response (BT-549 [13]) [%] | normalised response (BT-474 [14]) [%] | normalised response (CAL-51 [15]) [%] | normalised response (HCC1937 [16]) [%] | normalised response (MDA-MB-231 [17]) [%] | normalised response (DU-4475 [18]) [%] | normalised response (MCF-10A [19]) [%] | normalised response (MDA-MB-468 [20]) [%] | normalised response (MFM-223 [21]) [%] | normalised response (CAL-85-1 [22]) [%] | normalised response (Hs578T [23]) [%] | normalised response (HCC1599 [24]) [%] | normalised response (HCC1143 [25]) [%] | normalised response (CAL-120 [26]) [%] | normalised response (HDQ-P1 [27]) [%] | normalised response (CAL-148 [28]) [%] | normalised response (MDA-MB-453 [29]) [%] | normalised response (BT-549 [30]) [%] | normalised response (BT-474 [31]) [%] | normalised response (CAL-51 [32]) [%] | normalised response (HCC1937 [33]) [%] | normalised response (MDA-MB-231 [34]) [%] | normalised response (DU-4475 [35]) [%] | normalised response (MDA-MB-436 [36]) [%] |
| --- | --- | --- | --- | --- | --- | --- | --- | --- | --- | --- | --- | --- | --- | --- | --- | --- | --- | --- | --- | --- | --- | --- | --- | --- | --- | --- | --- | --- | --- | --- | --- | --- | --- | --- | --- | --- | --- |
| CN(C)CCN1C(=O)c2cccc3cc(N)cc(c23)C1=O [Amonafide] (1000 nM) | 95.2 | 92.2 | 91.6 | 101 | 93.6 | 93.6 | 89.5 | 106 | 97.6 | 96.2 | 102 | 87.2 | 107 | 97.2 | 87.5 | 113 | 89.9 | 95.6 | 87.1 | 100 | 52 | 97.3 | 100 | 113 | 102 | 100 | 98.9 | 106 | 93.9 | 106 | 130 | 99.3 | 106 | 116 | 122 | 96.7 |  |
| CCCCCCCCc1ccc(CCC(N)(CO)CO)cc1 [Fingolimod] (1000 nM) | 103 | 103 | 98.1 | 107 | 103 | 99.9 | 102 | 114 | 101 | 96.1 | 103 | 101 | 102 | 99.3 | 94.6 | 80.5 | 103 | 94.3 | 100 | 57.9 | 160 | 102 | 101 | 106 | 106 | 111 | 99.4 | 89 | 107 | 103 | 131 | 103 | 106 |  | 122 | 103 | 90.6 |
| Cc1ccc(NC(=O)c2ccc(CN3CCN(C)CC3)cc2)cc1Nc1nccc(-c2cccnc2)n1 [Imatinib] (1000 nM) | 102 | 111 | 99.9 | 104 | 104 | 105 | 105 | 101 | 99.2 | 108 | 101 | 103 | 111 | 106 | 102 | 96.3 | 93.6 | 106 | 105 | 101 | 137 | 105 | 110 | 104 | 104 | 113 | 106 |  | 101 | 103 | 121 | 98.8 | 103 |  | 107 | 101 |  |
| c1ccc([C@H]2CN3CCSC3=N2)cc1 [Levamisole] (1000 nM) | 104 | 109 | 110 | 105 | 104 | 101 | 113 | 98.4 | 109 | 101 | 106 | 103 | 105 | 100 | 100 | 73.4 | 99.6 | 104 | 99.2 | 113 | 68.7 | 102 | 107 |  | 104 | 101 | 100 | 75.4 | 107 | 96.9 | 120 | 102 | 103 | 108 | 117 | 106 | 85 |

From the supplement of paper PMC4862054
